Experimental data as given in ChEMBL document CHEMBL1201862, “PubChem BioAssay data set” (2004).
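Tested at 5 concentrations; 48 h exposure; 96-well plates; endpoints linearly interpolated, else capped at highest concentration. At the GI50, growth is halved.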 Calls of active or inactive are those of the source. Cut-off read from the data, not from the text of the source: active = GI50 up to about 1.1 µM and inactive = higher.

Experiments:
Test in all cases: NCI tumour cell line growth inhibition, 48 h
K562 = tested on: K562
SK-OV-3 = tested on: SK-OV-3
SNB-75 = tested on: SNB-75
HT-29 = tested on: HT-29
BT-549 = tested on: BT-549
SK-MEL-5 = tested on: SK-MEL-5
SNB-78 = tested on: SNB-78
CCRF-CEM = tested on: CCRF-CEM
RXF 393 = tested on: RXF 393
OVCAR-8 = tested on: OVCAR-8
UACC-62 = tested on: UACC-62
SF-295 = tested on: SF-295
SR = tested on: SR
IGROV-1 = tested on: IGROV-1
CAKI-1 = tested on: CAKI-1
T47D = tested on: T47D
ACHN = tested on: ACHN
LOX IMVI = tested on: LOX IMVI
MCF7 = tested on: MCF7
SW-620 = tested on: SW-620

Measured: GI50

OC[C@H]1O[C@@H](n2cnc3c(S)ncnc32)[C@H](O)[C@@H]1O [THIOINOSINE]
inactive: K562 1290 µM | SK-OV-3 603 µM | SNB-75 > 2120 µM | HT-29 2260 µM | BT-549 > 2500 µM | SK-MEL-5 > 2500 µM | SNB-78 > 2500 µM | CCRF-CEM 1120 µM | RXF 393 2460 µM | OVCAR-8 > 2440 µM | UACC-62 1250 µM | SF-295 > 2500 µM | SR 1890 µM | IGROV-1 > 2180 µM | CAKI-1 > 2500 µM | T47D 1830 µM | ACHN > 2500 µM | LOX IMVI 1840 µM | MCF7 2290 µM | SW-620 > 2500 µM

O=c1[nH]c(=O)n(C2CC(O)C(CS)O2)cc1F (stereo unspecified)
inactive: K562 > 93.3 µM | SK-OV-3 > 100 µM | SNB-75 55.6 µM | HT-29 66.1 µM | BT-549 > 100 µM | SK-MEL-5 70.1 µM | SNB-78 > 100 µM | CCRF-CEM 30.5 µM | RXF 393 > 100 µM | OVCAR-8 14.8 µM | UACC-62 65.2 µM | SF-295 47 µM | SR 56.6 µM | IGROV-1 > 100 µM | CAKI-1 > 81.7 µM | T47D > 76.2 µM | ACHN 21.4 µM | LOX IMVI 61.9 µM | MCF7 8.38 µM | SW-620 > 86.1 µM

CC1C=CC(C(N)C(=O)O)O1 (stereo unspecified)
inactive: K562 51.3 µM | SK-OV-3 > 100 µM | SNB-75 > 100 µM | HT-29 > 100 µM | SK-MEL-5 > 100 µM | SNB-78 > 100 µM | CCRF-CEM > 100 µM | RXF 393 > 100 µM | OVCAR-8 > 100 µM | UACC-62 > 100 µM | SF-295 > 100 µM | SR > 100 µM | IGROV-1 > 100 µM | CAKI-1 > 100 µM | ACHN > 100 µM | LOX IMVI > 100 µM | SW-620 > 100 µM

FC(F)(F)c1cccc2ns[s+]c12
inactive: K562 > 100 µM | SK-OV-3 > 100 µM | SNB-75 > 100 µM | HT-29 > 100 µM | SK-MEL-5 69.8 µM | SNB-78 > 100 µM | CCRF-CEM > 100 µM | RXF 393 > 100 µM | OVCAR-8 > 100 µM | UACC-62 > 100 µM | SF-295 > 100 µM | SR > 100 µM | IGROV-1 > 100 µM | CAKI-1 > 100 µM | ACHN > 100 µM | LOX IMVI > 100 µM | SW-620 > 100 µM

COc1ccc(-c2c(C3=NCCCN3)nnn2-c2ccccc2)cc1
inactive: K562 > 100 µM | SK-OV-3 > 100 µM | SNB-75 47.4 µM | HT-29 > 100 µM | SK-MEL-5 > 100 µM | SNB-78 > 100 µM | CCRF-CEM > 100 µM | RXF 393 > 100 µM | OVCAR-8 > 100 µM | UACC-62 > 100 µM | SF-295 > 100 µM | SR > 100 µM | IGROV-1 > 100 µM | CAKI-1 > 100 µM | ACHN > 100 µM | LOX IMVI > 100 µM | SW-620 > 100 µM
